US10189824B2, “Pyrimidine-diamine dual HSP90/TRAP1 inhibitors” (CalAsia Pharmaceuticals, Inc., priority 2014, dated 2019)
pEC50, pIC50: −log10 of the molar value.

Tests used:
Type in all cases: cell-based
GBM43 = assay: Cellular efficacy in Mayo Clinic GBM PDX cell line GBM43
Experimental: Short-term explant cultures from PDX models were seeded into 96-well Perfecta3D hanging drop plates to form a single spheroid in each well after 2 days. The spheroids were transferred to a round bottom 96 well plate by centrifugation and then incubated with graded concentrations of test compound (8 spheroids per compound concentration). Spheroid volumes were monitored every 6 hours over the course of 5 days using the IncuCyte system (Essen BioScience, MI, US) to provide a growth curve akin to a tumor regrowth assay.

MDA-MB-231 cells = assay: TMRE assay, MDA-MB-231 cell mitochondrial integrity; conditions: 2 hours or 4 hours
Experimental: Mitochondrial integrity was evaluated using Tetramethylrhodamine ethyl ester (TMRE) assay. A TMRE assay kit (Abcam) was used to evaluate Hsp90/TRAP1 inhibitor-induced changes in mitochondrial membrane potential. […] TMRE (200 nM) was then added to wells for 30 min and monitored for changes in fluorescence activity using a fluorescence plate reader (ex544/em 590) after washing the cells. Specific TMRE fluorescence was calculated by comparison to matched wells pretreated with the depolarizing proton ionophore carbonyl cyanide 4-(trifluoromethoxy)phenylhydrazone (FCCP) at 20 uM 10 min prior to addition of TMRE. For mitochondria assays, mitochondria was isolated using a kit from Thermoscientific and loaded with 0.1 mM TMRE. TMRE-loaded mitochondria (2 μg per well) were incubated with test compounds and monitored kinetically at 30° C. for changes in fluorescence using a flurorescence plate reader (ex 544/em 590) (FIGS. 6A, 9A and 12).

[1] = test system: Hsp90 client proteins (Akt1, ERK1) in MDA-MB-231 cell line; assay: Cellular biomarker assays (Akt1, ERK1 ELISA) in MDA-MB-231; conditions: 48 hours
Experimental: Cellular biomarker assays: Cells were cultured in culture medium (RPMI-glutamax, 10% FCS, 100 units/ml penicillin, and 100 μg/ml streptomycin). Cells were passaged after lifting using 0.25% trypsin/EDTA, and 3×10^5 cells were seeded in each well of six well plates (total volume 2.5 mL/well). After the cells were cultured for 24 hours, increasing concentrations of Hsp90 inhibitor were added to wells in triplicate from DMSO-containing stock solutions and mixed by gently by stirring. Final DMSO concentration in all wells was 0.25%. The treated cells were then cultured for 48 hours prior to lysate preparation. The culture media was removed from wells, and the wells were washed twice with DPBS containing 1 mM CaCl2 and 0.5 mM MgCl2. […] The protein concentration in the cell lysates was determined using the BCA protein assay kit used according to the manufacturer's recommendations. […] Protein concentrations were determined using a micro-titer plate reader (Model # Synergy HT; BioTek Inc., Winooski, Vt.).
Akt1 and ERK1 levels in the cell lysates were measured using kits from R&D Systems used according to the manufacturer's recommendations. […] Akt1 and ERK1 levels were determined using a micro-titer plate reader (Model # Synergy HT; BioTek Inc., Winooski, Vt.) (FIGS. 5 and 8).

U251MG cells = assay: Cell viability assay, ATP quantitation (ADP-Glo); conditions: Homo sapiens, U-251; 72 h at 37° C.; FIG. 1B
Experimental: U251MG cells were maintained at 37° C. and 5% CO2 in RPMI media supplemented with glutamax and containing 10% heat-inactivated fetal bovine serum and 1% penicillin/streptomycin (Life Sciences).
A cell counting kit (CCK-8 assay kit, Dojindo) and an ADP-Glo assay (Life Technologies) were used to quantitate the effects of test compounds on cell viability. U251MG cells were seeded into 96 well tissue culture plates and incubated for 16 h at 37° C. with 5% CO2. Increasing concentrations of test compounds were added to the wells from DMSO-containing stock solutions to a final DMSO concentration of 0.05% and incubated for 72 hr at 37° C. CCK-8 kit reagent or ADP-GLO reagent were then added to the wells and absorbance was measured at 450 nm (for the CCK assay) using a Synergy HT micro-titer plate reader (Biotek) or luminescence was measured (for the ADP-GLO assay) using a POLARstar Omega micro-titer plate reader (BMG).

[2] = test system: caspase 3/7 activity in U251MG cells; assay: Caspase activation assay (Caspase-3/7 luminescence); conditions: 48 h
Experimental: U251MG cells were seeded, maintained, and treated with test compounds as described above for 48 h at 37° C. Quantification of total cellular Caspase-3 and 7 activity was accomplished using a Caspase-3/7 luminescence assay kit (Promega) according to the manufacturer's recommendations and analyzed with a POLARstar Omega micro-titer plate reader (BMG).

[3] = test system: Akt1 levels in U251MG cells; assay: Biomarker quantitation by ELISA, Akt1
Experimental: (§1) U251 cells were plated in 6 well format culture dishes overnight at 37° C. with 5% CO2 and then treated with increasing concentrations of test compounds for 48 h at 37° C. with 5% CO2. Quantification of total Akt1, EGFR, and Hsp70 in cell lysates was accomplished using ELISA kits (R&D Systems) according to the manufacturer's recommendations and utilizing a Synergy HT micro-titer plate reader (Biotek). Cell lysates were prepared as recommended in the kit procedure. Protein concentrations of lysates clarified using centrifugation were determined using a Bradford assay (Thermo Scientific), and the values were used to normalize the biomarker values.

[4] = test system: EGFR levels in U251MG cells; assay: Biomarker quantitation by ELISA, EGFR; conditions: 16 uM, 48 h
Experimental: as §1

[5] = test system: Hsp70 levels in U251MG cells; assay: Biomarker quantitation by ELISA, Hsp70; conditions: 15.6 uM, 48 h
Experimental: as §1

Row | SMILES | pEC50 (GBM43) | Effect on TMRE fluorescence of MDA-MB-231 cells (MDA-MB-231 cells) | Effect on Akt1 and ERK1 levels, MDA-MB-231 [1] | pIC50 (U251MG cells) | U251MG caspase 3/7 activity increase ([2]; 50 uM) [fold] | Lowest concentration at which an increase in caspase activity was observed ([2]; U251MG) [µM] | Reduction of Akt1 levels ([3]; 15.6 uM, 48 h) [%] | pIC50 ([3]; Homo sapiens, U-251, 48 h, read-out: Akt1 level reduction IC50) | Reduction of EGFR levels [4] [%] | Increase of Hsp70 levels [5] [fold]
1 | COc1c(C)cnc(CN(CC2(c3ccc(F)cc3)CCOCC2)c2cc(Cl)nc(N)n2)c1C [Compound A, 6-chloro-4-N-{[4-(4-fluorophenyl)oxan-4-yl]methyl}-4-N-[(4-methoxy-3,5-dimethylpyridin-2-yl)methyl]pyrimidine-2,4-diamine] | 6.55 | dose-dependent decrease | suppression of Hsp90 client proteins | – | – | – | – | – | – | –
2 | COc1c(C)cnc(CN(CCc2ccccn2)c2cc(Cl)nc(N)n2)c1C [Compound 1, 6-chloro-4-N-[(4-methoxy-3,5-dimethylpyridin-2yl)methyl]-4-N-[2-(pyridine-2-yl)ethyl]pyrimidine-2,4-amine] | – | – | – | 5.60 | 6.8 | 1.6 | 79 | 5.62 | 71 | 6
